Here are results for 19 compounds from PubChem BioAssay (NCI).

Test systems include SNB-78 CNS; LXFL 529 NSCLC; DMS 114 small cell lung; MCF7 breast; T-47D breast; MDA-N; BT-549 breast; NCI/ADR-RES ovarian; RXF-631 renal; SN12K1 renal; P388/ADR leukemia; P388 leukemia.
Assay in all cases: NCI tumour cell line growth inhibition, 48 h

Values joined by “and” are separate entries in the source; they are usually repeats but may differ in a detail not shown here. Equal values may be shown once.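 Values below derive from 48-hour exposures of cells grown in 96-well plates, with endpoints linearly interpolated between the two concentrations bracketing the appropriate inhibition level. At the GI50, growth is halved. TGI: concentration producing complete growth inhibition.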

Consider `Cc1ccc(/C=C(\C#N)c2ccccc2)cc1`, for which the TGI in the experiment with SNB-78 CNS, in the experiment with LXFL 529 NSCLC and in the experiment with DMS 114 small cell lung was more than 100 µM each time.

Consider `O=C1C(=O)N(c2cccc(C(F)(F)F)c2)C(=O)C(=O)C1c1nc2ccccc2s1`, for which the TGI with MCF7 breast, in the experiment with SNB-78 CNS, with T-47D breast, in the experiment on MDA-N, in the experiment on BT-549 breast and with LXFL 529 NSCLC was more than 100 µM each time. Besides, the TGI in the experiment on DMS 114 small cell lung, in the experiment with NCI/ADR-RES ovarian and in the experiment on RXF-631 renal was more than 100 µM each time.

Regarding `Cc1ccc(NC(=O)CC/C(CC(=O)C(C)(C)C)=N\Nc2ccc([N+](=O)[O-])cc2[N+](=O)[O-])cc1C`, the TGI with SNB-78 CNS, in the experiment on LXFL 529 NSCLC, with DMS 114 small cell lung and with RXF-631 renal was more than 100 µM in each case.

In the case of `CC(=O)NC(CCCCN(Cc1ccccc1)C(=O)N(CCCl)N=O)C(=O)NCc1ccccc1` (stereo not drawn), the TGI is more than 100 µM in the experiment with MCF7 breast; more than 100 µM with SNB-78 CNS; 36.7 µM with T-47D breast; 36.3 µM in the experiment on MDA-N; 65.8 µM in the experiment on BT-549 breast; more than 100 µM in the experiment with LXFL 529 NSCLC. Besides, the TGI with DMS 114 small cell lung is more than 100 µM; in the experiment on NCI/ADR-RES ovarian, 34.3 µM.

On to `O=C(O)CCSC(=S)Nc1cccc(F)c1`, for which the TGI in the experiment on SNB-78 CNS was more than 100 µM; with LXFL 529 NSCLC, more than 100 µM; in the experiment with DMS 114 small cell lung, 51.8 µM.

Take `O=C(O)CCSC(=O)Nc1ccccc1Cl`: the TGI in the experiment on SNB-78 CNS, in the experiment on LXFL 529 NSCLC, in the experiment on DMS 114 small cell lung and in the experiment on RXF-631 renal was more than 100 µM throughout.

As for `CC(O)CN1c2ccccc2Sc2ccc(Cl)cc21` (stereo not drawn), the TGI in the experiment with MCF7 breast, in the experiment on T-47D breast, in the experiment on MDA-N, in the experiment on BT-549 breast and in the experiment on NCI/ADR-RES ovarian was more than 10 µM throughout.

Regarding `NC(=Nc1nc(-c2ccccn2)cc2ccccc12)c1ccccn1`, the GI50 with MCF7 breast is 0.148 µM; with T-47D breast, 0.00636 µM; in the experiment on MDA-N, 0.445 µM; with BT-549 breast it was 0.197 µM; in the experiment on NCI/ADR-RES ovarian, 0.0434 µM. The TGI in the experiment on MCF7 breast was more than 100 µM; in the experiment with SNB-78 CNS, more than 100 µM; in the experiment on MDA-N it was more than 100 µM; in the experiment on BT-549 breast it was more than 100 µM; in the experiment on LXFL 529 NSCLC, more than 100 µM; in the experiment on RXF-631 renal it was 0.244 µM.

Consider `O=c1c(-c2ccc(O)cc2)coc2cc(OC3OC(CO)C(O)C(O)C3O)cc(O)c12` (stereo not drawn), for which the GI50 with MCF7 breast and in the experiment on T-47D breast was more than 100 µM each time. For the same compound, the TGI was more than 100 µM in the experiment with MCF7 breast; more than 100 µM with T-47D breast; more than 100 µM in the experiment on MDA-N; more than 100 µM in the experiment with BT-549 breast; more than 10 µM in the experiment with NCI/ADR-RES ovarian.

Regarding `COc1ccc(/C=C\c2cc(OC)c(OC)c(OC)c2)c(O)c1O`, the GI50 in the experiment on MCF7 breast is 0.05 µM; in the experiment on SNB-78 CNS, 1.86 µM; in the experiment with DMS 114 small cell lung it was 0.196 µM. Further, the TGI with SNB-78 CNS is > 89.6 µM and 48.5 µM; in the experiment with T-47D breast it was more than 79.7 µM; in the experiment on SN12K1 renal, 1.08 µM; with MDA-N it was less than 0.0304 µM; in the experiment with P388/ADR leukemia, 23.4 µM; in the experiment on BT-549 breast, 32.3 µM. For the same compound, the TGI is 4.57 µM in the experiment with P388 leukemia; 12.8 µM in the experiment with LXFL 529 NSCLC; 3.92 µM and 0.568 µM in the experiment with DMS 114 small cell lung.

On to `C=C1C(=O)OC2C1C(OC(=O)/C(C)=C\C)CC1(CO1)C1C(O)C=C(C)C21O` (stereo not drawn), for which the TGI in the experiment with SNB-78 CNS is 34.9 µM; in the experiment on LXFL 529 NSCLC, 3.42 µM; in the experiment with DMS 114 small cell lung, 20.6 µM; in the experiment on RXF-631 renal it was 16.9 µM.

For `O=C(O)CC1CC=C[C@H]2c3cc4c(cc3C(=O)NC12)OCO4` (stereo partly drawn), the TGI with SNB-78 CNS, in the experiment with LXFL 529 NSCLC and in the experiment on DMS 114 small cell lung was more than 75 µM in each case.

As for `Cc1c(C2Cc3ccccc3N2)c2ccccc2n1C` (stereo not drawn), the TGI in the experiment on SNB-78 CNS, with LXFL 529 NSCLC and with DMS 114 small cell lung was more than 100 µM throughout.

On to `COC(=O)C(=O)C(C(=O)C=C(C)C)C(=O)C(=O)Nc1nc2ccc([N+](=O)[O-])cc2s1` (stereo not drawn), for which the TGI with SNB-78 CNS, in the experiment on LXFL 529 NSCLC and in the experiment with DMS 114 small cell lung was more than 100 µM each time.

In the case of `CC1=C2[C@H](c3ccccc3)C3C=CC2(c2ccccc23)N(C(=O)C(c2ccccc2)c2ccccc2)C1=O` (stereo partly drawn), the TGI in the experiment with LXFL 529 NSCLC and in the experiment with DMS 114 small cell lung was more than 100 µM throughout.

`Cn1nc(-c2ccccc2)c(C(=O)/C=C/c2ccc(F)cc2)c(N2CCOCC2)c1=O`: the TGI in the experiment on LXFL 529 NSCLC stood at 30.9 µM; with DMS 114 small cell lung, 33.4 µM; with RXF-631 renal, 86.6 µM.

`CC1=NN(C(=O)c2ccc(Cl)cc2)C(=O)/C1=C/c1ccco1`: the TGI in the experiment with SNB-78 CNS, in the experiment with LXFL 529 NSCLC and in the experiment with DMS 114 small cell lung was more than 100 µM throughout.

In the case of `CCCCCCCCCOC(=S)NCCCCC`, the TGI is more than 100 µM with SNB-78 CNS, more than 100 µM with LXFL 529 NSCLC and 47.4 µM with DMS 114 small cell lung.

Consider `CCCCCCCCCCCCCC(=O)OCC1OC(n2cc(F)c(=O)[nH]c2=O)C(N)C(OC(=O)CCCCCCCCCCCCC)C1O` (stereo not drawn), for which the TGI in the experiment on SNB-78 CNS, in the experiment with LXFL 529 NSCLC and in the experiment with DMS 114 small cell lung was more than 100 µM each time.
